# Laboratory results published in US6291527A (priority 1998, dated 2001).
# Where a name gives a salt, the structure may show the parent alone.
# Key:
# prostaglandin E2 (PGE2) = assay: foreign body (sponge) method in the rat: PGE2 in the inflammatory exudate (immunoenzymatic assay); format: in vivo; conditions: for PGE2 concentration in the inflammatory exudate / % inhibition versus controls of PGE2: oral, 8 hours, listed as KGS; for PGE2 concentration in the inflammatory exudate: mean, controls 98.7 ± 4.7
# Description: (§1) These tests involved the use of 100 male CD strain rats (Charles River, Calco, LC, Italy) weighing 180±8 g. The animals were fasted for 12 hours (water ad libitum) before being used for the experiment.
# (§2) The inflammatory reaction with the formation of exudate was induced by using sterilized polyester sponges (4×1.5×0.5 cm) soaked in carrageen dissolved at a 2% concentration in sterile physiological solution. The rats were anesthetized lightly with ether and two sponges per rat were implanted subcutaneously in a previously shaven dorsal area.
# (§3) The sponges were removed 8 hours later after having sacrificed the animals by ether euthanasia, and immediately placed in large polyethylene 50 ml test tubes containing 10 ml of heparinized physiological solution. The test tubes were then subjected to centrifugation (1000 rotations; 15 minutes), followed by removal of the sponges and accurate measurement of the volume of the remaining fluid. Always using the Higgs et al. method, the acid lipids present in the fluid were extracted in chloroform with prior dilution in ethanol and acidification to pH 3. After complete evaporation of the chloroform, the remaining dry residue was dissolved in physiological solution and used for the immunoenzymatic assay of prostaglandin E2 (PGE2).
# (§4) All the other reagents used for the tests were purchased from Merck-Bracco (Milan, Italy).
# [1] = animal studies of the three salts vs Ketoprofen acid and Ketoprofen sodium salt: distribution and kinetics; format: in vivo, experimental animals
# Description: The three above mentioned Ketoprofen salts were compared with Ketoprofen acid and Ketoprofen sodium salt in animal studies.
# [2] = tested on: inflammatory exudate (IE); assay: foreign body (sponge) method in the rat: inflammatory exudate volume; format: in vivo; conditions: for IE (inflammatory exudate) volume / % inhibition versus controls of IE: oral, 8 hours, listed as KGS; for IE (inflammatory exudate) volume: mean ± MSE, controls 5.15 ± 0.28
# Description: as §1, §2, §3, §4
# carrageen edema = carrageen edema test in the rat (hind paw volume, plethysmometer); conditions: for evolution of paw volume (delta in ml) at 1st hour / evolution of paw volume (delta in ml) at 2nd hour / evolution of paw volume (delta in ml) at 3rd hour / evolution of paw volume (delta in ml) at 4th hour / evolution of paw volume (delta in ml) at 5th hour / evolution of paw volume (delta in ml) at 6th hour: mean ± MSE; for % inhibition vs controls (paw edema AUC): p < 0.001; for AUC (mean ± MSE) of increase in paw volume: paw volume (delta in ml) vs time (0 to 6 hours), controls 4.23 ± 0.26
# [3] = rat, 0.5, 1, 2 and 4 mg/kg per os
# [4] = rat, oral, 1 mg/kg, listed as KGS
# [5] = rat, oral, 2 mg/kg, listed as KGS
smiles,measurement,setting,value
CC(C(=O)O)c1cccc(C(=O)c2ccccc2)c1 (stereo not shown) [Ketoprofen Glucosamine salt],ED50,"prostaglandin E2 (PGE2); Rattus norvegicus, po, 8 h, rat, 95% confidence limits KGS 1.848-2.131, KLS 2.215-3.005",1.99 mg/kg
same,inhibition of PGE2 activity in exudates,prostaglandin E2 (PGE2); [3],singificant inhibition of PGE2 activity
same,PGE2 concentration in the inflammatory exudate,"prostaglandin E2 (PGE2); rat, 0.5 mg/kg",67.6 ng/mL
same,% inhibition versus controls of PGE2,"prostaglandin E2 (PGE2); rat, 0.5 mg/kg",31.5%
same,PGE2 concentration in the inflammatory exudate,"prostaglandin E2 (PGE2); rat, 1 mg/kg",60.5 ng/mL
same,% inhibition versus controls of PGE2,"prostaglandin E2 (PGE2); rat, 1 mg/kg",38.7%
same,PGE2 concentration in the inflammatory exudate,"prostaglandin E2 (PGE2); rat, 2 mg/kg",49.9 ng/mL
same,% inhibition versus controls of PGE2,"prostaglandin E2 (PGE2); rat, 2 mg/kg",49.4%
same,PGE2 concentration in the inflammatory exudate,"prostaglandin E2 (PGE2); rat, 4 mg/kg",24.9 ng/mL
same,% inhibition versus controls of PGE2,"prostaglandin E2 (PGE2); rat, 4 mg/kg",74.8%
same,active substance concentration in the inflamed site,"[1]; injection, vs Ketoprofen sodium salt",much greater than that observed with Ketoprofen sodium salt
same,kinetic parameters after oral administration,"[1]; oral, vs Ketoprofen acid and Ketoprofen sodium salt",significantly different
same,ED50,"[2]; Rattus norvegicus, po, 8 h, rat, 95% confidence limits KGS 1.802-2.381, KLS 2.334-3.094",2.09 mg/kg
same,control of the inflammatory response to sponge implantation,[2]; [3],controls the vasculo-exudative inflammatory response in a dose dependent manner
same,IE (inflammatory exudate) volume,"[2]; rat, 0.5 mg/kg",3.87 ± 0.27 mL
same,% inhibition versus controls of IE,"[2]; rat, 0.5 mg/kg",24.8%
same,IE (inflammatory exudate) volume,"[2]; rat, 1 mg/kg",3.56 ± 0.28 mL
same,% inhibition versus controls of IE,"[2]; rat, 1 mg/kg",30.9%
same,IE (inflammatory exudate) volume,"[2]; rat, 2 mg/kg",2.53 ± 0.22 mL
same,% inhibition versus controls of IE,"[2]; rat, 2 mg/kg",50.9%
same,IE (inflammatory exudate) volume,"[2]; rat, 4 mg/kg",1.05 ± 0.09 mL
same,% inhibition versus controls of IE,"[2]; rat, 4 mg/kg",79.6%
same,ED50,"carrageen edema; Rattus norvegicus, po, read-out: oral ED50 (carrageen edema, extrapolated from AUC), rat, oral, 95% conf. lim. KGS 0.733-1.474, KLS 1.198-1.567",1.1 mg/kg
same,anti-inflammatory / anti-edematogenic effect,"carrageen edema; rat, oral",dose-dependent
same,anti-inflammatory activity compared with Ketoprofen Lysine salt,"carrageen edema; rat, oral 0.5, 1 and 2 mg/kg",comparable
same,evolution of paw volume (delta in ml) at 1st hour,"carrageen edema; rat, oral, 0.5 mg/kg, controls 0.40 ± 0.02, listed as KGS",0.28 ± 0.02 mL
same,evolution of paw volume (delta in ml) at 2nd hour,"carrageen edema; rat, oral, 0.5 mg/kg, controls 0.71 ± 0.02, listed as KGS",0.51 ± 0.03 mL
same,evolution of paw volume (delta in ml) at 3rd hour,"carrageen edema; rat, oral, 0.5 mg/kg, controls 0.87 ± 0.03, listed as KGS",0.62 ± 0.04 mL
same,evolution of paw volume (delta in ml) at 4th hour,"carrageen edema; rat, oral, 0.5 mg/kg, controls 0.93 ± 0.03, listed as KGS",0.65 ± 0.04 mL
same,evolution of paw volume (delta in ml) at 5th hour,"carrageen edema; rat, oral, 0.5 mg/kg, controls 0.90 ± 0.04, listed as KGS",0.62 ± 0.05 mL
same,evolution of paw volume (delta in ml) at 6th hour,"carrageen edema; rat, oral, 0.5 mg/kg, controls 0.84 ± 0.04, listed as KGS",0.56 ± 0.05 mL
same,% inhibition vs controls (paw edema AUC),"carrageen edema; rat, oral, 0.5 mg/kg",30%
same,% inhibition vs controls (paw edema AUC),"carrageen edema; rat, oral, 0.5 mg/kg, listed as KGS",30.0%
same,AUC (mean ± MSE) of increase in paw volume,"carrageen edema; rat, oral, 0.5 mg/kg, listed as KGS, 0.5 mg/kg",2.96 ± 0.15
same,evolution of paw volume (delta in ml) at 1st hour,carrageen edema; [4],0.23 ± 0.01 mL
same,evolution of paw volume (delta in ml) at 2nd hour,carrageen edema; [4],0.39 ± 0.02 mL
same,evolution of paw volume (delta in ml) at 3rd hour,carrageen edema; [4],0.46 ± 0.02 mL
same,evolution of paw volume (delta in ml) at 4th hour,carrageen edema; [4],0.48 ± 0.02 mL
same,evolution of paw volume (delta in ml) at 5th hour,carrageen edema; [4],0.45 ± 0.02 mL
same,evolution of paw volume (delta in ml) at 6th hour,carrageen edema; [4],0.39 ± 0.03 mL
same,% inhibition vs controls (paw edema AUC),"carrageen edema; rat, oral, 1 mg/kg",48%
same,% inhibition vs controls (paw edema AUC),carrageen edema; [4],48.0%
same,AUC (mean ± MSE) of increase in paw volume,"carrageen edema; rat, oral, 1 mg/kg, listed as KGS, 1 mg/kg",2.20 ± 0.13
same,evolution of paw volume (delta in ml) at 1st hour,carrageen edema; [5],0.11 ± 0.02 mL
same,evolution of paw volume (delta in ml) at 2nd hour,carrageen edema; [5],0.20 ± 0.02 mL
same,evolution of paw volume (delta in ml) at 3rd hour,carrageen edema; [5],0.26 ± 0.03 mL
same,evolution of paw volume (delta in ml) at 4th hour,carrageen edema; [5],0.28 ± 0.03 mL
same,evolution of paw volume (delta in ml) at 5th hour,carrageen edema; [5],0.25 ± 0.03 mL
same,evolution of paw volume (delta in ml) at 6th hour,carrageen edema; [5],0.16 ± 0.02 mL
same,% inhibition vs controls (paw edema AUC),"carrageen edema; rat, oral, 2 mg/kg",72%
same,% inhibition vs controls (paw edema AUC),carrageen edema; [5],72.1%
same,AUC (mean ± MSE) of increase in paw volume,"carrageen edema; rat, oral, 2 mg/kg, listed as KGS, 2 mg/kg",1.18 ± 0.06
